Laboratory results taken from patent US8383084B2, “Destruction of spores through glycoconjugate enhanced phagocytosis” (priority 2006, dated 2013).
Where two headings read alike, the source gives them in different places.

Tests used:
murine macrophages [1] = test: Comet assay (tail vs. head) and phagocyte diameter; assay type: cell-based, C57BL/6 mice; conditions: for diameter of phagocytes upon uptaking glycoconjugate-coated spores: compared to macrophages only, spores only, glycoconjugate alone; for uptake of coated spores and spore-induced cell death: glycoconjugate-coated spores, B; for uptake of coated spores and spore-induced cell death / effect of glycoconjugate-treated spores on murine macrophages (Comet assay): FIG. 10A; for diameter of phagocytic cells, glycoconjugate alone: glycoconjugates alone, dilutions 10^0, 10^-2, 10^-4; for effect of glycoconjugate-treated spores on murine macrophages (Comet assay): macrophages exposed to treated spores, 10B; for effect of glycoconjugate alone on macrophages (Comet assay): macrophages treated with glycoconjugate only, FIG. 10E, 10F
Method: Possible induction of apoptosis was determined by Comet assay (FIG. 10) using Trevigen (Gaithersburg, Md.) Comet assay kit and analyzed under epifluorescence microscope (FIG. 10). Nuclei with damaged DNA have the appearance of a comet with a bright head and a tail, whereas nuclei with undamaged DNA appear round, with no tail. Ration tail vs. head was measured in order to determine apoptosis (FIG. 10).

human macrophages = assay type: cell-based
B. cereus spores [2] = assay type: cell-based, Bacillus cereus ATCC 11778
murine macrophages [3] = assay type: cell-based, C57BL/6 mice
B. cereus spores [4] = assay type: cell-based, Bacillus cereus ATCC 11778; remark: listed apart in the source
murine macrophages [5] = test system: murine macrophages
murine macrophages [6] = assay type: cell-based, C57BL/6 mice; remark: listed apart in the source

GalNAcα1-3 GalNAcβ-PAA-flu [GalNAcα1-3GalNAcβ-PAA-flu]
diameter of phagocytes upon uptaking glycoconjugate-coated spores (murine macrophages [1]): increased | uptake of coated spores and spore-induced cell death (murine macrophages [1]): stimulates the uptake of coated spores and protect from spore-induced cell death | diameter of phagocytic cells, glycoconjugate alone (murine macrophages [1]): do not affect the diameter of phagocytic cells | effect of glycoconjugate-treated spores on murine macrophages (Comet assay) (murine macrophages [1]): pro-apoptotic effects | effect of glycoconjugate alone on macrophages (Comet assay) (murine macrophages [1]): do not induce death | human macrophage NO production (human macrophages): stimulate human macrophage nitric oxide (NO) production | destruction of spores, following spores' exposure (B. cereus spores [2]): 76.4% | destruction of spores, prior to exposure (B. cereus spores [2]): 65.5% | destruction of the spores (in words) (B. cereus spores [2]): almost total destruction of the spores | spores killed, following exposure condition (B. cereus spores [2]): ~50% | spores killed, prior to and during exposure conditions (B. cereus spores [2]): 70-80% | LDH release/production (murine macrophages [3]): 11.9% | destruction of spores (B. cereus spores [4]): 86.4% | dose at which 50% of the spores were killed (B. cereus spores [4]): 100 pg/mL | macrophage viability (murine macrophages [5]): up to 87% | induction of macrophage NO production (murine macrophages [6]): induced macrophage NO production | macrophage NO production (extent) (murine macrophages [6]): less stimulatory

Galα1-3 GalNAcα-PAA-flu [Galα1-3GalNAcα-PAA-flu]
diameter of phagocytes upon uptaking glycoconjugate-coated spores (murine macrophages [1]): increased | uptake of coated spores and spore-induced cell death (murine macrophages [1]): stimulates the uptake of coated spores and protect from spore-induced cell death | diameter of phagocytic cells, glycoconjugate alone (murine macrophages [1]): do not affect the diameter of phagocytic cells | effect of glycoconjugate-treated spores on murine macrophages (Comet assay) (murine macrophages [1]): pro-apoptotic effects | effect of glycoconjugate alone on macrophages (Comet assay) (murine macrophages [1]): do not induce death | LDH release/production (murine macrophages [3]): 8.9% | destruction of spores (B. cereus spores [4]): 89.4% | destruction of the spores (in words) (B. cereus spores [4]): almost total destruction of the spores | dose at which 50% of the spores were killed (B. cereus spores [4]): 1 pg/mL | macrophage viability (murine macrophages [5]): ≤ 97.8% | induction of macrophage NO production (murine macrophages [6]): induced macrophage NO production | macrophage NO production (extent) (murine macrophages [6]): doubled
